Test results from PubChem BioAssay (NCI).
Several values for one entry are separate records, joined by “and”; a condition that tells them apart may be missing. Equal values may be shown once.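 96-well plates; 48 h exposure; 5 concentrations. Endpoints by linear interpolation between flanking doses. Not reached: highest tested concentration assigned. At the GI50, growth is halved. Definition used: TGI = concentration required for complete inhibition of growth.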

What was measured:
Test in all cases: NCI-60 cell line screen, 48 h
[1] = tested on: EKVX NSCLC
[2] = tested on: HCC-2998 colon
[3] = tested on: OVCAR-3 ovarian
[4] = tested on: SF-295 CNS
[5] = tested on: SK-MEL-5 melanoma
[6] = tested on: SNB-75 CNS
[7] = tested on: TK-10 renal
[8] = tested on: DU-145 prostate
[9] = tested on: MDA-N
[10] = tested on: T-47D breast

SMILES	TGI [1] [µM]	TGI [2]	TGI [3] [µM]	TGI [4]	TGI [5]	TGI [6]	TGI [7]	TGI [8] [µM]	TGI [9] [µM]	TGI [10] [µM]	GI50 [8] [µM]	GI50 [1] [µM]	GI50 [2] [µM]	GI50 [3] [µM]	GI50 [4] [µM]	GI50 [5] [µM]	GI50 [6] [µM]	GI50 [7] [µM]	GI50 [10] [µM]
O=c1oc2ccccc2c(O)c1C(C/C(CCN1CCCC1)=N\Nc1ccccc1)c1ccccc1 (stereo unspecified)	> 100	> 100 µM	> 100	> 100 µM	> 100 µM	> 100 µM	> 100 µM	–	–	–	–	–	–	–	–	–	–	–	–
O=C(CSc1nc2ccccc2c(=O)n1-c1ccccc1)N=Nc1c(O)[nH]c2ccc(F)cc12	5.57	4.75 µM	3.91	–	15.4 µM	–	–	4.17	14	3.97	–	–	–	–	–	–	–	–	–
COc1cc(CS(=O)c2ccc(O)cc2)cc(OC)c1OC (stereo unspecified)	> 100	–	> 100	> 100 µM	> 100 µM	> 100 µM	> 100 µM	> 100	> 100	> 100	–	–	–	–	–	–	–	–	–
COC(=O)C(NC(=O)c1ccccc1)C(c1ccc(Cl)cc1)P(=O)(OC)OC (stereo unspecified)	> 100	> 100 µM	–	> 100 µM	> 100 µM	> 100 µM	> 100 µM	–	–	–	–	–	–	–	–	–	–	–	–
COC(=O)C1=C(C(=O)OC)SC2(S1)C(C(=O)OC)=C(C(=O)OC)Sc1c2ssc1=NC(C)(C)C	3.36	–	3.5	27.7 µM	4.92 µM	2.92 µM	3.27 µM	2.17	–	–	–	–	–	–	–	–	–	–	–
CC1=C(C)C(=O)C(C2=CC(=O)C=CC2=O)=C(C2=CC(=O)C=CC2=O)C1=O	> 100	> 100 µM	–	> 100 µM	46.2 µM	> 100 µM	> 100 µM	> 100	> 59.3	77.5	–	–	–	–	–	–	–	–	–
O=c1ccc2nc(-c3ccccn3)nn(-c3ccccc3)c-2c1	20	14.6 µM	3.17	27.4 µM	5.53 µM	23.5 µM	3.12 µM	11.1	–	–	3.77	6.25	4.18	1.77	13.9	2.3	11.4	1.66	–
O=C(O)Cn1cc([N+](=O)[O-])c(=O)c2ccccc21	–	> 100 µM	> 100	> 100 µM	> 100 µM	> 100 µM	> 100 µM	> 100	> 100	32.8	–	–	–	–	–	–	–	–	–
O=c1[nH]c(=S)c2cc3c(=S)[nH]c(=O)n(CCO)c3nc2n1CCO	> 100	> 100 µM	> 100	> 100 µM	> 100 µM	> 100 µM	> 100 µM	–	> 100	> 100	–	–	–	–	–	–	–	–	–
COC(=O)c1c(O)ccc2c1c1c(n2Cc2ccccc2)C(=O)c2ccccc2C1	–	–	> 100	> 100 µM	> 100 µM	70.2 µM	> 100 µM	> 100	> 100	–	–	–	–	–	–	–	–	–	–
CCOC(=O)c1c(-c2cccc3ccccc23)c(C#N)c(=S)n(C2OC(COC(C)=O)C(OC(C)=O)C(OC(C)=O)C2OC(C)=O)c1C (stereo unspecified)	–	> 100 µM	> 100	> 100 µM	> 100 µM	87.9 µM	> 100 µM	> 100	> 100	> 100	–	–	–	–	–	–	–	–	–
O=c1c2ccccc2nc(N/N=C/c2ccccc2O)n1-c1ccccc1	–	> 100 µM	17.2	> 100 µM	> 100 µM	> 100 µM	> 100 µM	> 100	> 100	–	–	–	–	–	–	–	–	–	–
[N-]=[N+]=C(C(=O)N1CCCC1=O)S(=O)(=O)c1ccccc1	> 100	> 100 µM	> 100	> 100 µM	> 100 µM	> 100 µM	> 100 µM	> 100	> 100	–	–	–	–	–	–	–	–	–	–
N#CC(C#N)=C1C(=O)NC(N)=C1C#N	> 100	> 100 µM	–	> 100 µM	> 100 µM	–	> 100 µM	> 100	> 100	> 100	–	–	–	–	–	–	–	–	–
Cc1nc2ccccc2c(/C=C/c2ccc(Cl)cc2)c1C(=O)/C=C/c1ccccc1	–	3.3 µM	2.77	–	2.96 µM	–	–	–	–	–	–	–	1.66	1.36	–	1.61	–	–	–
C/C=C(/C)C(=O)O[C@H]1[C@H](O)CC(c2ccc3c(c2O)C(O)=C2C(=O)C4(OC)C(O)=C(C(N)=O)C(=O)[C@H](CC(=O)c5ccccc5O)C4CC2[C@@]3(C)OC)O[C@@H]1C (stereo partly specified)	0.518	1.25 µM and 1.05 µM	1.9	0.193 µM and 0.128 µM	0.0149 µM and 0.0199 µM	2.05 µM and 0.705 µM	6.19 µM and 4.65 µM	–	2.09	8.06	–	–	–	–	–	–	–	–	–
CCN1CCC(O)(/C=C/c2ccc(OC)cc2)C(C(=O)/C=C/c2ccc(OC)cc2)C1 (stereo unspecified)	26.4	29 µM	27.6	29.2 µM	–	–	26.7 µM	22.8	–	24.1	–	–	–	–	–	–	–	–	–
Cc1c(C(=O)O)n2cnnc2c2ccccc12	> 100	> 100 µM	> 100	> 100 µM	> 100 µM	–	> 100 µM	> 100	> 100	> 100	–	–	–	–	–	–	–	–	–
COc1ccc(-c2nn(-c3ccc(NC(=O)Nc4ccc(Cl)c(C(F)(F)F)c4)cc3)cc2-c2ccncc2)cc1Cl	14.4	7.97 µM	6.14	–	2.82 µM	7.86 µM	5.27 µM	20.6	–	7.73	3.07	1.83	2.19	1.67	–	1.5	1.36	1.41	2.72
COc1ccc2c(c1)OC[C@@H]1c3cc(O)c(OCc4ccccc4)cc3O[C@H]21	60.1	> 100 µM	> 100	> 100 µM	26.5 µM	65.4 µM	96.4 µM	–	–	–	–	–	–	–	–	–	–	–	–
CN(Cc1cc(Cl)c(Cl)cc1NC(=O)CN)[C@H]1CCCC[C@@H]1N1CCCC1	> 100	31.2 µM	> 100	36.6 µM	32.1 µM	> 100 µM	> 100 µM	–	31.4	> 100	–	–	–	–	–	–	–	–	–
Cc1ccc(NC(=O)CSC(N)=O)cc1C	> 100	> 100 µM	> 100	> 100 µM	> 100 µM	> 100 µM	> 100 µM	> 100	–	> 100	–	–	–	–	–	–	–	–	–
CC(=O)c1c2n(n(-c3ccccc3)c1=O)C(=O)c1nccnc1-2	> 100	> 100 µM	> 100	> 100 µM	> 100 µM	> 100 µM	–	> 100	> 100	> 100	–	–	–	–	–	–	–	–	–
